Here are results for 14 compounds from patent US10758530B2, “Carboxamide derivatives useful as rsk inhibitors” (PHOENIX MOLECULAR DESIGNS, priority 2016, dated 2020).

The nature of series [1]: Solubility assessment (20 mg/ml solution, precipitate formation, pH strips). In kind it is physicochemical. To be noted: for Solubility, 20 mg/ml solution: dissolved in DMSO (100 mM); for pH of 20 mg/ml solution: dissolved in DMSO. The protocol: Solubility is an important property for therapeutic drug candidates. Poor solubility can lead to low bioavailability resulting in suboptimal drug delivery. It can also prevent the evaluation of test agents in animals because the concentration(s) needed to achieve the desired effect cannot be achieved to poor solubility. For solubility assessments, small molecules targeting RSK were compared. For these assessments, 100 mM solutions of the compounds dissolved in DMSO were diluted in DMEM growth media (Life Technologies) supplemented with fetal bovine serum (FBS, Life Technologies) and 100 units/ml penicillin and 100 units/mi streptomycin (Life Technologies) to make 20 mg/ml solutions. Once diluted, the solutions were vortexed and examined for the formation of precipitates. […] For Compound 26, a 100 mM solution of the compound dissolved in DMSO was diluted in phosphate buffered saline (Life Technologies) to make a 20 mg/ml solution. The stock of […] was chosen because this is the upper end of what would be required to dose mice for a range of studies including MTD, PK, PD and efficacy. The pH of this solution was determined to be 2, as previously described. […] At high concentrations some RSK inhibitors were highly soluble while others were not. Compound 0 is (R)—N-(1-benzyl-1H-pyrazol-4-yl)-9-methyl-6-oxo-6,7,8,9-tetrahydropyrido[3′,2′:4,5]pyrrolo[1,2-a]pyrazine-2-carboxamide. Compound 0 was not soluble, whereas Compounds 18, 20, 21, 25 and 26 were soluble under the same conditions (Table 5).

Series [2] deals with SUM149-PTXR. As to the kind of experiment: Monolayer growth inhibition, Alamar blue assay. To be noted: Homo sapiens, 120 h; TNBC, BRCA mutant; 5 days, single dose. In kind it is cell-based. In general terms: Alamar Blue is a resazurin reagent that responds to reducing activity.
Description: (§2) 1×10^3 cells per well were seeded for a final volume of 200 μl per well and plates were incubated for 5 days at 37° C. in a humidified incubator with 5% CO2. Following the incubation period, cell survival was quantified by Alamar blue assay (Life Technologies). Briefly, media from each well was replaced with 100 μl of phosphate buffer saline (PBS, Life Technologies) and cells were incubated with 5% Alamar blue, which incorporates a propriety redox indicator that changes colour in response to metabolic activity, for up to 2 hours. During this period of incubation, the absorbance at 570 nm and 600 nm was measured at various time points, depending on the cell line or sample. Percent survival was calculated by comparing the absorbance ratio of the test well to the control well multiplied by 100%, as indicated in the following formula:
Series [3] concerns SUM149-PTXR. In words: Monolayer growth inhibition, crystal violet assay. To be noted: Homo sapiens, 120 h; TNBC, BRCA mutant; 5 days, single dose. In kind it is cell-based.
For series [4], the system named is All cell lines of Tables 6A/6B. As to the kind of experiment: Monolayer growth inhibition, Alamar blue assay, range over all cell lines. In kind it is cell-based. To be noted: 120 h, read-out: IC50 Values - Alamar Blue (5 Days), Range, All.
Description: as §2
Series [5] has as its system All cell lines of Tables 7A/7B. As to the kind of experiment: Monolayer growth inhibition, crystal violet assay, range over all cell lines. In kind it is cell-based. To be noted: 120 h, read-out: IC50 Values - Crystal Violet (5 Days), Range, All.
The test system of series [6] is HLA-DRA mRNA. As to the kind of experiment: HLA-DRA mRNA expression in MDA-MB-231 and JIMT-1 cells. In kind it is cell-based, Human. To be noted: Compound 16 2 or 4 uM; Compound 18 1, 2, or 4 uM. The text has this: (§1) A key feature of cancer is low immunogenicity. This can occur by several mechanisms that allow the cells to escape immune recognition. […] HLA-DRA is a member of MHC-II genes and CIITA is the master regulator of MHC II transcription. Thus it was surprising that CIITA, which would be expected to regulate MHC II gene expression, was not altered by RSK inhibition. […] HLA-DRA is important for immune recognition while PD-L1 is involved in immune checkpoints.

In series [7] the test system is CD274. In words: CD274 (PD-L1 gene) expression in MDA-MB-231 cells. To be noted: Compound 16 2 or 4 uM; Compound 18 1, 2, or 4 uM. In kind it is cell-based, Human.
Description: as §1

In series [8] the test system is CIITA. As to the kind of experiment: CIITA mRNA expression in MDA-MB-231 and JIMT-1 cells. To be noted: Compound 16 2 or 4 uM; Compound 18 1, 2, or 4 uM. In kind it is cell-based, Human.
Description: as §1

Series [9] has as its system phosphorylated Y-box binding protein-1 (YB-1) at serine 102 (P-YB-1 S102). As to the kind of experiment: Immunoblotting of P-YB-1 (cell signalling inhibition) in MDA-MB-231 cells.
Description: Generation of cellular extracts: Following desired experimental conditions, breast cancer cell lines grown and treated in 6 well plates or 100 mm culture dishes (Grenier Bio-One) were placed on ice and the supernatant from each well was removed and the cells were washed in cold PBS. Following removal of PBS, cells were exposed to radioimmunoprecipitation assay (RIPA) buffer (50 mM Tris-HCl (pH 8), 150 mM NaCl, 1% NP-40, 0.5% sodium deoxycholate, 0.1% SDS; Fisher Scientific) supplemented with 1% phosphatase inhibitor (Fisher Scientific) and 1% protease inhibitor (Fisher Scientific) for 10 minutes. Samples were transferred to eppendorf tubes, vortexed and then centrifuged at 14 000 rpm for 10 minutes. Supernatants were collected as whole cell lysates. For mouse tumour tissues, each sample was place in a 35 mm culture dish with complete RIPA lysis buffer. The samples were diced in the buffer on ice with a sterile scalpel (VWR) and the buffer and tissue were transferred to an eppendorf tube. The samples were left on ice for 10 minutes with periodic vortexing every 2 to 3 minutes. The samples were then transferred to a Qiashredder (Qiagen) and centrifuged at 14 000 rpm for 2 minutes. The flow through was transferred to a new eppendorf tube and the samples were centrifuged again at 14 000 rpm for 5 minutes. Supernatants were collected as whole cell lysates.
Immunoblotting: To begin, the protein content of the lysates was measured using the Bicinchoninic Acid (BCA) Protein Assay Kit (Pierce), which included a protein standard curve generated with bovine serum albumin. […] For certain immunoblots, bands of proteins of interest were scanned and band intensity ratios were determined by densitometric analysis (ImageJ). […] To assess whether cells are actively undergoing cell death, the activity of poly ADP ribose polymerase (PARP) (1:1000 CST) was also measured using the immunoblotting method.
Series [10] has as its system CD274. As to the kind of experiment: CD274 (PD-L1 gene) expression in JIMT-1 cells. In kind it is cell-based, Human. The following applies: 1-20 uM.
Description: as §1

For series [11], the system named is P-YB-1. As to the kind of experiment: Pharmacodynamics: P-YB-1 signalling in MDA-MB-231 xenograft tumors (immunoblotting). To be noted: n=3 treated 3 days, n=9 treated 21 days. (In general: A western blot detects proteins with antibodies after separation by electrophoresis.)
Description: For mouse tumour tissues, each sample was place in a 35 mm culture dish with complete RIPA lysis buffer. The samples were diced in the buffer on ice with a sterile scalpel (VWR) and the buffer and tissue were transferred to an eppendorf tube. The samples were left on ice for 10 minutes with periodic vortexing every 2 to 3 minutes. The samples were then transferred to a Qiashredder (Qiagen) and centrifuged at 14 000 rpm for 2 minutes. The flow through was transferred to a new eppendorf tube and the samples were centrifuged again at 14 000 rpm for 5 minutes. Supernatants were collected as whole cell lysates.
Immunoblotting: To begin, the protein content of the lysates was measured using the Bicinchoninic Acid (BCA) Protein Assay Kit (Pierce), which included a protein standard curve generated with bovine serum albumin. Appropriate volumes of samples and loading buffer (50 mM Tris-HCl (pH 6.8), 2% SDS, 10% glycerol, 1% 3-mercaptoethanol, 12.5 mM EDTA, 0.02% bromophenol blue) were mixed, ensuring that equal amounts of protein were loaded. For the majority of experiments in this study, 30 μg of protein per well was loaded. […] For certain immunoblots, bands of proteins of interest were scanned and band intensity ratios were determined by densitometric analysis (ImageJ). […]
Cell signalling was evaluated by immunoblotting. […]
The mark [12] stands for this setting: diluted in DMEM, hydrochloride salt.
Setting [13] is: diluted in PBS, hydrochloride salt.

Entries after “also recorded” stand apart in the source; their conditions may differ. Where a name gives a salt, the structure may show the parent alone.

Regarding `C[C@@H]1CNC(=O)c2cc3ccc(C(=O)Nc4cnn(Cc5ccccc5)c4)nc3n21` [Compound 0, (R)—N-(1-benzyl-1H-pyrazol-4-yl)-9-methyl-6-oxo-6,7,8,9-tetrahydropyrido[3′,2′:4,5]pyrrolo[1,2-a]pyrazine-2-carboxamide, reference compound], the “Solubility for systemic delivery in mice (qualitative)” value in series [1] was “poor or nonexistent solubility”. The “Solubility, 20 mg/ml solution” value in series [1] (diluted in DMEM) is “not soluble; also recorded: Precipitate”.
Consider `C[C@@H]1CNC(=O)c2cc3ccc(NC(=O)c4cnn(Cc5ccccc5)c4)cc3n21` [Compound 11, (R)-1-benzyl-N-(4-methyl-1-oxo-1,2,3,4-tetrahydropyrazino[1,2-a]indol-7-yl)-1H-pyrazole-4-carboxamide], for which the IC50 in series [2] is 36.4 ± 11.9 µM; in series [3] it was 44.6 ± 3.9 µM.
On to `C[C@@H]1CNC(=O)c2cc3ccc(NC(=O)c4cnn(Cc5ccccc5)c4)nc3n21` [Compound 15, (R)-1-benzyl-N-(9-methyl-6-oxo-6,7,8,9-tetrahydropyrido[3′,2′:4,5]pyrrolo[1,2-a]pyrazin-2-yl)-1H-pyrazole-4-carboxamide], for which the IC50 is 3.6 to 21.3 µM in [4], 9.2 ± 3 µM in [2], 8.8 ± 2.2 µM in series [3] and 5.9 to 21 µM in [5].
On to `C[C@@H]1CNC(=O)c2cc3ccc(C(=O)Nc4cnn(Cc5cccc(N)c5)c4)nc3n21` [Compound 16, (R)—N-(1-(3-aminobenzyl)-1H-pyrazol-4-yl)-9-methyl-6-oxo-6,7,8,9-tetrahydropyrido[3′,2′:4,5]pyrrolo[1,2-a]pyrazine-2-carboxamide], for which the “HLA-DRA mRNA levels” value in series [6] is given as “elevated levels of HLA-DRA mRNA”. In addition, the “Levels of CD274 in MDA-MB-231 cells” value in series [7] is reported as “reduced levels of CD274”. In addition, the IC50 was 0.9 to 17.4 µM in series [4], 2.5 ± 0.4 µM in series [2], 3.5 ± 1.2 µM in [3] and 1.2 to 13.3 µM in [5]. In addition, the “mRNA expression of CIITA” value in series [8] was “little effect”. In addition, the “Loss of P-YB-1” value in [9] (0.01-1 uM, 96 hrs) was “dose dependent loss of P-YB-1”.
For `C[C@@H]1CNC(=O)c2cc3ccc(C(=O)Nc4cnn(Cc5ccccc5N)c4)nc3n21` [Compound 17, (R)—N-(1-(2-aminobenzyl)-1H-pyrazol-4-yl)-9-methyl-6-oxo-6,7,8,9-tetrahydropyrido[3′,2′:4,5]pyrrolo[1,2-a]pyrazine-2-carboxamide], the IC50 in series [4] was 1.2 to 12.6 µM; in series [2] it was 4.2 ± 1.5 µM; in series [3], 5.2 ± 0.6 µM; in series [5], 1 to 8.9 µM.
Take `C[C@@H]1CNC(=O)c2cc3ccc(C(=O)Nc4cnn(Cc5ccc(N)cc5)c4)nc3n21` [Compound 18, (R)—N-(1-(4-aminobenzyl)-1H-pyrazol-4-yl)-9-methyl-6-oxo-6,7,8,9-tetrahydropyrido[3′,2′:4,5]pyrrolo[1,2-a]pyrazine-2-carboxamide]: the “HLA-DRA mRNA levels” value in [6] is on record as “elevated levels of HLA-DRA mRNA”. Moreover, in series [7], the “Levels of CD274 in MDA-MB-231 cells” value is given as “reduced levels of CD274”. For the same compound, the “CD274 in JIMT-1 cells” value in series [10] is recorded as “inhibited CD274”. Further, in series [1] (diluted in DMEM), the “Solubility, 20 mg/ml solution” value is listed as “Soluble” and the “pH of 20 mg/ml solution” value is 9. In [8], the “mRNA expression of CIITA” value was “little effect”. Further, the “Loss of P-YB-1” value in [9] (0.01-1 uM, 96 hrs) is listed as “dose dependent loss of P-YB-1”.
With `C[C@@H]1CNC(=O)c2cc3ccc(NC(=O)c4cnn(Cc5cccc(N)c5)c4)nc3n21` [Compound 19, (R)-1-(3-aminobenzyl)-N-(9-methyl-6-oxo-6,7,8,9-tetrahydropyrido[3′,2′:4,5]pyrrolo[1,2-a]pyrazin-2-yl)-1H-pyrazole-4-carboxamide], the IC50 in [4] is 10.5 to 37.3 µM; in [2] it was 14.1 ± 4.3 µM; in [3] it was 13 ± 1.3 µM; in [5], 7.4 to 34 µM.
In the case of `C[C@@H]1CNC(=O)c2cc3ccc(C(=O)Nc4cnn(CC5CCN(C)CC5)c4)nc3n21` [Compound 20, (R)-9-methyl-N-(1-((1-methylpiperidin-4-yl)methyl)-1H-pyrazol-4-yl)-6-oxo-6,7,8,9-tetrahydropyrido[3′,2′:4,5]pyrrolo[1,2-a]pyrazine-2-carboxamide], in [1] (diluted in DMEM), the “Solubility, 20 mg/ml solution” value was “Soluble” and the “pH of 20 mg/ml solution” value is listed as 8.
Consider `C[C@@H]1CNC(=O)c2cc3ccc(C(=O)Nc4ccccc4C(N)=O)nc3n21` [Compound 21, (R)—N-(2-carbamoylphenyl)-9-methyl-6-oxo-6,7,8,9-tetrahydropyrido[3′,2′:4,5]pyrrolo[1,2-a]pyrazine-2-carboxamide], for which the IC50 in series [4] is 1.2 to 14.7 µM; in series [2], 1.5 ± 0.8 µM; in series [3], 2 ± 0.2 µM; in [5], 1.1 to 11.3 µM. Also, the “Solubility, 20 mg/ml solution” value in [1] (diluted in DMEM) is listed as “Soluble”. The “pH of 20 mg/ml solution” value in [1] (diluted in DMEM) was 9.
On to `C[C@@H]1CNC(=O)c2cc3ccc(C(=O)Nc4cnn(Cc5ccc(C(F)(F)F)cc5)c4)nc3n21` [Compound 22, (R)-9-methyl-6-oxo-N-(1-(4-(trifluoromethyl)benzyl)-1H-pyrazol-4-yl)-6,7,8,9-tetrahydropyrido[3′,2′:4,5]pyrrolo[1,2-a]pyrazine-2-carboxamide], for which the IC50 in series [4] is 4.5 to 17.1 µM; in [2] it was 7.8 ± 4.6 µM; in [3], 8 ± 1.3 µM; in series [5], 2.6 to 14.2 µM. Further, in series [1] (diluted in DMEM), the “Solubility, 20 mg/ml solution” value is given as “Precipitate”.
For `C[C@@H]1CNC(=O)c2cc3ccc(C(=O)Nc4cnn(Cc5ccc(F)cc5F)c4)nc3n21` [Compound 23, (R)—N-(1-(2,4-difluorobenzyl)-1H-pyrazol-4-yl)-9-methyl-6-oxo-6,7,8,9-tetrahydropyrido[3′,2′:4,5]pyrrolo[1,2-a]pyrazine-2-carboxamide] the same measures were 1.1 to 19.8 µM, 5.1 ± 4 µM, 5 ± 2.4 µM, 1.1 to 15 µM and “Precipitate”.
With `C[C@@H]1CNC(=O)c2c(Cl)c3ccc(C(=O)Nc4cnn(Cc5ccccc5)c4)nc3n21` [Compound 24, (R)—N-(1-benzyl-1H-pyrazol-4-yl)-5-chloro-9-methyl-6-oxo-6,7,8,9-tetrahydropyrido[3′,2′:4,5]pyrrolo[1,2-a]pyrazine-2-carboxamide], the half-inhibitory concentration (IC50) in [4] was 0.5 to 12.3 µM; in series [2] it was 3.4 ± 2.1 µM; in series [3], 4.5 ± 1.4 µM; in series [5], 0.3 to 9.1 µM. Moreover, the “Solubility, 20 mg/ml solution” value in series [1] (diluted in DMEM) is reported as “Precipitate”.
With `C[C@@H]1CNC(=O)c2cc3ccc(C(=O)Nc4cnn(Cc5ccc(N)cc5)c4)nc3n21` [Compound 25, (R)—N-(1-(4-aminobenzyl)-1H-pyrazol-4-yl)-9-methyl-6-oxo-6,7,8,9-tetrahydropyrido[3′,2′:4,5]pyrrolo[1,2-a]pyrazine-2-carboxamide hydrochloride salt], the “Tumors with reduced P-YB-1 signaling (3 and 21 days combined)” value in series [11] is 12/12. 5.2 ± 4.2 µM corresponded to half-maximal inhibition in [2] (IC50). For the same compound, in [1], the “Solubility for systemic delivery in mice (qualitative)” value was “superior solubility”. For the same compound, in series [1] (setting [12]), the “Solubility, 20 mg/ml solution” value is recorded as “Soluble” and the “pH of 20 mg/ml solution” value is given as 2. Moreover, the “Loss of P-YB-1” value in series [9] (0.01, 0.1, 1, or 10 uM, 24 hrs) is reported as “dose dependent loss of P-YB-1”.
With `C[C@@H]1CNC(=O)c2cc3ccc(C(=O)Nc4cnn(Cc5ccc(CN)cc5)c4)nc3n21` [Compound 26, (R)—N-(1-(4-(aminomethyl)benzyl)-1H-pyrazol-4-yl)-9-methyl-6-oxo-6,7,8,9-tetrahydropyrido[3′,2′:4,5]pyrrolo[1,2-a]pyrazine-2-carboxamide hydrochloride salt], the half-inhibitory concentration (IC50) is 1.9 to 15.5 µM in series [4], 8.8 ± 2.5 µM in [2], 6.5 ± 2.1 µM in series [3] and 1.5 to 12.3 µM in series [5]. For the same compound, in series [1] (setting [13]), the “Solubility, 20 mg/ml solution” value is “Soluble”. Moreover, in series [1] (setting [13]), the “pH of 20 mg/ml solution” value is 2-9.

By IC50 is commonly meant the concentration at which inhibition is half-maximal.
